In ChEMBL document CHEMBL1201862, “PubChem BioAssay data set” (2004):
Calls of active or inactive are those of the source.

Assays:
Format in all cases: functional
[1] = target: Tyrosine-protein kinase Fyn (Homo sapiens, UniProt P06241)
[2] = target: T1, Serine/threonine-protein kinase Chk1 (Homo sapiens, UniProt O14757);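 also: measured as one member of a kinome-wide kinase profiling panel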
T1 sequence (O14757 whole entry): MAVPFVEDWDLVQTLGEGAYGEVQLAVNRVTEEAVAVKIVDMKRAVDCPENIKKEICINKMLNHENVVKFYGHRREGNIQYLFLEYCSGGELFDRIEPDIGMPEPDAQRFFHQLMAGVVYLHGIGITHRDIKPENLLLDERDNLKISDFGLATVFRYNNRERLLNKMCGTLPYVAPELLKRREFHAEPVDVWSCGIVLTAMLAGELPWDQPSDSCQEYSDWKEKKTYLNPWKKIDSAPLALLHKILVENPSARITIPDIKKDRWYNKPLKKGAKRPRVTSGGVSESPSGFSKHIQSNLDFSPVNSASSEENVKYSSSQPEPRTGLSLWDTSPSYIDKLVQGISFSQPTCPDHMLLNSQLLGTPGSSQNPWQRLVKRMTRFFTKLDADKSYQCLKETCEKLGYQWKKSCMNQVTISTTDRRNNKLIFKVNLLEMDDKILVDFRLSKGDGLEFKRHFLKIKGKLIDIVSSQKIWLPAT

[3] = target: ALK tyrosine kinase receptor (Homo sapiens, UniProt Q9UM73);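 also: ALK tested as one member of a kinase panel screen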
[4] = target: Cyclin-dependent kinase 9 (Homo sapiens, UniProt P50750);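 also: value from the CDK9 entry of a kinome-spanning kinase panel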
[5] = target: Death-associated protein kinase 3 (Homo sapiens, UniProt O43293);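 also: measured as one member of a kinome-wide profiling panel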
[6] = target: Serine/threonine-protein kinase pim-1 (Homo sapiens, UniProt P11309)
[7] = target: Mitogen-activated protein kinase 8 (Homo sapiens, UniProt P45983);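 also: value comes from one member of a kinome-wide kinase profiling panel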
[8] = target: High affinity nerve growth factor receptor (Homo sapiens, UniProt P04629);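 also: NTRK1 tested as one member of a kinome-wide profiling panel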
[9] = target: Tyrosine-protein kinase JAK3 (Homo sapiens, UniProt P52333)
[10] = target: Fibroblast growth factor receptor 1 (Homo sapiens, UniProt P11362)
[11] = target: T2, Tyrosine-protein kinase receptor TYRO3 (Homo sapiens, UniProt Q06418);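 also: TYRO3 value obtained as one member of a kinome-wide profiling panel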
T2 sequence (Q06418 whole entry): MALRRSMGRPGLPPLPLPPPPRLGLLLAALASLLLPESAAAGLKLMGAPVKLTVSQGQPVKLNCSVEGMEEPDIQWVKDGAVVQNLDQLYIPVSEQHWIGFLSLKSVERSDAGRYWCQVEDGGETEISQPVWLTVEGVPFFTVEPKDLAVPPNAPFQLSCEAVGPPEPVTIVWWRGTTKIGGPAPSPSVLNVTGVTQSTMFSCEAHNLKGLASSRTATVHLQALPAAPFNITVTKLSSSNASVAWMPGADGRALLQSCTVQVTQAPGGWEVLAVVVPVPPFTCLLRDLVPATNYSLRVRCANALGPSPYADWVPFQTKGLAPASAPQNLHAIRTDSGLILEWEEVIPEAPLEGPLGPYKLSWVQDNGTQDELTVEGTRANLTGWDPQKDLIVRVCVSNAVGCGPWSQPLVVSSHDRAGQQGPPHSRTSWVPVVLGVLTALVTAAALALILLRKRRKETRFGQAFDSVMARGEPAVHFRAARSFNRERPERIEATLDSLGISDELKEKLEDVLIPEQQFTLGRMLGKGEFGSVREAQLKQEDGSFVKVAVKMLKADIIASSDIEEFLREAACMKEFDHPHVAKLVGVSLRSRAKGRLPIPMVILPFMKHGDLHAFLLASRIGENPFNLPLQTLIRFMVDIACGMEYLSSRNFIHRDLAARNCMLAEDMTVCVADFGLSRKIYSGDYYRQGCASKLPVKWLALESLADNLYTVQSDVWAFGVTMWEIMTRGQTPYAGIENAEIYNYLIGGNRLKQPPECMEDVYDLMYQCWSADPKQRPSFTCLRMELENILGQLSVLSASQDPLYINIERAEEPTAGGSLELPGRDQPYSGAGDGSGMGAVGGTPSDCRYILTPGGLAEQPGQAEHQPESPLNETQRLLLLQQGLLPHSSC

[12] = target: Insulin-like growth factor 1 receptor (Homo sapiens, UniProt P08069); assay: Navigating the Kinome. Panel member name: IGF1R
[13] = target: 5'-AMP-activated protein kinase catalytic subunit alpha-1 (Homo sapiens, UniProt Q13131)
[14] = target: Tyrosine-protein kinase ABL1 (Homo sapiens, UniProt P00519)
[15] = target: Glycogen synthase kinase-3 beta (Homo sapiens, UniProt P49841);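 also: value comes from a broad kinome profiling panel, with GSK3B as the panel member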
[16] = target: Mitogen-activated protein kinase kinase kinase kinase 2 (Homo sapiens, UniProt Q12851);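 also: measured as one member of a kinome-wide kinase panel, with MAP4K2 as the panel entry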
[17] = target: Ribosomal protein S6 kinase alpha-3 (Homo sapiens, UniProt P51812);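 also: measured within a kinome-wide profiling panel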
[18] = target: Serine/threonine-protein kinase PAK 4 (Homo sapiens, UniProt O96013);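 also: value obtained within a kinome profiling panel in which PAK4 was one of the panel members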
[19] = target: Mitogen-activated protein kinase 9 (Homo sapiens, UniProt P45984);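 also: value from a kinome panel profiling assay, MAPK9 panel entry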
[20] = target: Tyrosine-protein kinase JAK2 (Homo sapiens, UniProt O60674);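 also: JAK2 tested as one member of a kinase panel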
[21] = target: Tyrosine-protein kinase Lck (Homo sapiens, UniProt P06239);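 also: lck was assayed as one member of a kinase panel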
[22] = target: Cyclin-dependent kinase 8 (Homo sapiens, UniProt P49336); assay: Navigating the Kinome. Panel member name: CDK8
[23] = target: Serine/threonine-protein kinase TAO1 (Homo sapiens, UniProt Q7L7X3)
Aurora kinase B = Aurora kinase B (Homo sapiens, UniProt Q96GD4)
[24] = target: Vascular endothelial growth factor receptor 2 (Homo sapiens, UniProt P35968)
[25] = target: Serine/threonine-protein kinase Nek2 (Homo sapiens, UniProt P51955)
[26] = target: Cyclin-dependent kinase 7 (Homo sapiens, UniProt P50613);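 also: value comes from a kinome-wide kinase profiling panel in which CDK7 is one member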
[27] = target: Vascular endothelial growth factor receptor 1 (Homo sapiens, UniProt P17948);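 also: measured within a kinome-wide profiling panel, FLT1 as the panel member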

Chain of Tyrosine-protein kinase Fyn (P06241 whole entry): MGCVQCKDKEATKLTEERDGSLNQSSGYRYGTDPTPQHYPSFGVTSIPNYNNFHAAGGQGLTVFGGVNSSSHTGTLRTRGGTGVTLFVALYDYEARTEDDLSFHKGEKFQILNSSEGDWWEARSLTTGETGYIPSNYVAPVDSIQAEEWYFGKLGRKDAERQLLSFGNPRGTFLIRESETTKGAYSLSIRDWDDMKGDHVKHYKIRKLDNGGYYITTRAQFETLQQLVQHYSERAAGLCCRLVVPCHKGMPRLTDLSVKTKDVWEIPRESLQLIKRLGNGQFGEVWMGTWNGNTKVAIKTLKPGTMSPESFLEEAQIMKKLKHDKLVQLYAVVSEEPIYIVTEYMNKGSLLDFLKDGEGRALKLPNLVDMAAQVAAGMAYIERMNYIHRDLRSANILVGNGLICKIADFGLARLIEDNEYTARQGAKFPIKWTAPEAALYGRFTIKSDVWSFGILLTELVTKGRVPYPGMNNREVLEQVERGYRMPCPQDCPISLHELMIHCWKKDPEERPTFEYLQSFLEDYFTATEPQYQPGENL
Chain of Mitogen-activated protein kinase 9 (P45984 whole entry): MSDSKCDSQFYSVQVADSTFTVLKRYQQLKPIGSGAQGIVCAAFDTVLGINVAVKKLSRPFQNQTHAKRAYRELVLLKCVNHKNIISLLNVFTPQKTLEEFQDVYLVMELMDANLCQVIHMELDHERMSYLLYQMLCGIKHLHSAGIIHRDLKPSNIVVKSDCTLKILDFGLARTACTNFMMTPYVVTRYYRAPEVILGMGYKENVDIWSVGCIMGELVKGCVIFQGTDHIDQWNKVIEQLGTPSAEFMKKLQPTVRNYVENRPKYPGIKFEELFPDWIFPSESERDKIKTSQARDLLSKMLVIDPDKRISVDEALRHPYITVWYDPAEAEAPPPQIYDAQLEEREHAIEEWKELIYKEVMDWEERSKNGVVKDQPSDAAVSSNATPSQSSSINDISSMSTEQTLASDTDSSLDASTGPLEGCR
Chain of Serine/threonine-protein kinase Nek2 (P51955 whole entry): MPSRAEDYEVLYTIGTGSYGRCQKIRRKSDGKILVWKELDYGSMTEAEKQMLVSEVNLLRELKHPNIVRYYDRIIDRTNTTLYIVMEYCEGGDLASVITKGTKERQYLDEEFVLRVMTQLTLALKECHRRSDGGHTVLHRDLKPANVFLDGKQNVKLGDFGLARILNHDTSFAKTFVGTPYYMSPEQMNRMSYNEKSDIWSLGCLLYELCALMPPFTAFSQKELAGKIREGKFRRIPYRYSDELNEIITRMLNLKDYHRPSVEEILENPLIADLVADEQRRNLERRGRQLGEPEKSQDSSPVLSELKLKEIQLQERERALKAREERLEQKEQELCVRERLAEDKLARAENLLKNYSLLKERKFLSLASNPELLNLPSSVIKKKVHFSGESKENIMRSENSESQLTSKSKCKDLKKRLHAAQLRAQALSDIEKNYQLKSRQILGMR
Chain of Mitogen-activated protein kinase 8 (P45983 whole entry): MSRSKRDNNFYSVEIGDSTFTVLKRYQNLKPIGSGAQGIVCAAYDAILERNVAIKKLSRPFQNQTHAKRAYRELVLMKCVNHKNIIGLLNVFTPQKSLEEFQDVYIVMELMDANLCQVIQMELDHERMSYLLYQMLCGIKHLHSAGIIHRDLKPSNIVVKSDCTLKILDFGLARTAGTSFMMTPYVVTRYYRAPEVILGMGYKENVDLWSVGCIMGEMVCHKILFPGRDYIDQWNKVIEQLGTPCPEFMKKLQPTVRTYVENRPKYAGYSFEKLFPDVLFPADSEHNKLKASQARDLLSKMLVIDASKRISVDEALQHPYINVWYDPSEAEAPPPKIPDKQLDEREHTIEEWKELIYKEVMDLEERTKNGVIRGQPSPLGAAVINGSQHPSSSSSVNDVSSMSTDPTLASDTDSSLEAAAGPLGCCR
Chain of Fibroblast growth factor receptor 1 (P11362 whole entry): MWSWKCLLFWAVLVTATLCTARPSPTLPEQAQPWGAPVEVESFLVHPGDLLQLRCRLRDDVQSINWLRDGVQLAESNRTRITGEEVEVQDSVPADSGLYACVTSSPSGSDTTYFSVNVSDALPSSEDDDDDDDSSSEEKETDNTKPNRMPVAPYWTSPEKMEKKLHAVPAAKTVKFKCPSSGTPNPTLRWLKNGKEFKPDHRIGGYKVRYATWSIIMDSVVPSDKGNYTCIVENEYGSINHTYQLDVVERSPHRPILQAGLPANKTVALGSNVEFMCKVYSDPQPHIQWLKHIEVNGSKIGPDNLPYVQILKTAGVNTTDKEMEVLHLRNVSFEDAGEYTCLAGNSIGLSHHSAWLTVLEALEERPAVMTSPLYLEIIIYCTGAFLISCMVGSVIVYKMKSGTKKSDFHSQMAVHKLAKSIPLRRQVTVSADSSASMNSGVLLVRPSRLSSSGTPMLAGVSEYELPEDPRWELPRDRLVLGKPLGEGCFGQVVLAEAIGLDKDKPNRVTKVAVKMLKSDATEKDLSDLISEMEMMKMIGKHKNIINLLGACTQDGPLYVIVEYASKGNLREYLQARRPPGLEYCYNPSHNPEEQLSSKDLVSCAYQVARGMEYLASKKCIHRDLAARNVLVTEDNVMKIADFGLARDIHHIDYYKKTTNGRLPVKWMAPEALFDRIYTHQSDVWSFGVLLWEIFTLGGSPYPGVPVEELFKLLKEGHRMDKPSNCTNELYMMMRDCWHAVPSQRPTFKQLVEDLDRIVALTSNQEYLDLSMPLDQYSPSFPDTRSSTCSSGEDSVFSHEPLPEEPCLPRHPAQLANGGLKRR
Chain of Vascular endothelial growth factor receptor 2 (P35968 whole entry): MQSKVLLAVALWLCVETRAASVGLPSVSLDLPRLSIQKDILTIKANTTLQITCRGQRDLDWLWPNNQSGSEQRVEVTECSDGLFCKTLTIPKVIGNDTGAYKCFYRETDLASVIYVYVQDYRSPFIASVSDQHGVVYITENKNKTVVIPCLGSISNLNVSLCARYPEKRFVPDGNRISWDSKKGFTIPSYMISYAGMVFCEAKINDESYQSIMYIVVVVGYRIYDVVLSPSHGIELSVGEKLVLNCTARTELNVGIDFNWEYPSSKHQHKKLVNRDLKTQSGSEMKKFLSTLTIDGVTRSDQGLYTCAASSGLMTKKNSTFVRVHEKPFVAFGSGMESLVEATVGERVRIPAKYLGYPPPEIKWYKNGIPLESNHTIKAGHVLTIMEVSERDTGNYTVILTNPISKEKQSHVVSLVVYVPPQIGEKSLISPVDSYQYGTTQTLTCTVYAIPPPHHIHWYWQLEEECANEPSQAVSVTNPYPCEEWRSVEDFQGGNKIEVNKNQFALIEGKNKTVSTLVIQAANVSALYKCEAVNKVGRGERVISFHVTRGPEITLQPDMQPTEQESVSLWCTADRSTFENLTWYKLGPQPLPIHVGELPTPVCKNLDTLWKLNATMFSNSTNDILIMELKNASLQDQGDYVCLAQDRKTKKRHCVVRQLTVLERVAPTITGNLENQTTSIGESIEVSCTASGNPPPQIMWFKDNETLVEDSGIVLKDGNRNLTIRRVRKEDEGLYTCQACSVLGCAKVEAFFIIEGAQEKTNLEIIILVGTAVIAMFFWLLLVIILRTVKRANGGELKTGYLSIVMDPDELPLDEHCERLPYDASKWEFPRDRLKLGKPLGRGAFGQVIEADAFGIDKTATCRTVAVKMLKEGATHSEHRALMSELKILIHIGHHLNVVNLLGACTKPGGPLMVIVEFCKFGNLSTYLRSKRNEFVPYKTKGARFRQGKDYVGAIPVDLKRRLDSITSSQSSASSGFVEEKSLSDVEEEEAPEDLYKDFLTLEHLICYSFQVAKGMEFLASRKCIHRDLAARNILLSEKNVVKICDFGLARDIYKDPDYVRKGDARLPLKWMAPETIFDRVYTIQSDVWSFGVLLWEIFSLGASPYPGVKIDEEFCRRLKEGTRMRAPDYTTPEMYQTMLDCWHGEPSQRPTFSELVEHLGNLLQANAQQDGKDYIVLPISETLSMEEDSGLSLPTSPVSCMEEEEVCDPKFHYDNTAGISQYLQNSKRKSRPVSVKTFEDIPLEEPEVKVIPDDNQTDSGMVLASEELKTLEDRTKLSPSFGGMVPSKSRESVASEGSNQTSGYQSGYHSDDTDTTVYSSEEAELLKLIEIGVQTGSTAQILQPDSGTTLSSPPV
Chain of Serine/threonine-protein kinase pim-1 (P11309 whole entry): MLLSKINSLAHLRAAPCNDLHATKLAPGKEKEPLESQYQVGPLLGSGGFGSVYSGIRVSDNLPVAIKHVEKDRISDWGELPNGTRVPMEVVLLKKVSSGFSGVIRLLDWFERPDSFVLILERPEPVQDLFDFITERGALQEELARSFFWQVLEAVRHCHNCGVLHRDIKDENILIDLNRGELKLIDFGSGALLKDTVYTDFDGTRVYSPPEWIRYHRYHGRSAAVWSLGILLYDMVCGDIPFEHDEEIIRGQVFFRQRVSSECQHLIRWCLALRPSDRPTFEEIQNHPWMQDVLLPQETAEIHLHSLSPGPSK
Chain of Cyclin-dependent kinase 7 (P50613 whole entry): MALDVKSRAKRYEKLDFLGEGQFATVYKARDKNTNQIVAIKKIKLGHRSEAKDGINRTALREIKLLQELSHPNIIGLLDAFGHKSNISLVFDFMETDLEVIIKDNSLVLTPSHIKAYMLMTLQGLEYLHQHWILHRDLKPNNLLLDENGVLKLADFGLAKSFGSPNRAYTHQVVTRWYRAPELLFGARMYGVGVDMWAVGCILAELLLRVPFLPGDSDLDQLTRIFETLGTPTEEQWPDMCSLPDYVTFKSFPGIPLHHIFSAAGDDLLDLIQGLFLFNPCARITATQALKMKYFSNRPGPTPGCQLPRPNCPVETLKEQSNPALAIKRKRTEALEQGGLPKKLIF
Chain of Aurora kinase B (Q96GD4 whole entry): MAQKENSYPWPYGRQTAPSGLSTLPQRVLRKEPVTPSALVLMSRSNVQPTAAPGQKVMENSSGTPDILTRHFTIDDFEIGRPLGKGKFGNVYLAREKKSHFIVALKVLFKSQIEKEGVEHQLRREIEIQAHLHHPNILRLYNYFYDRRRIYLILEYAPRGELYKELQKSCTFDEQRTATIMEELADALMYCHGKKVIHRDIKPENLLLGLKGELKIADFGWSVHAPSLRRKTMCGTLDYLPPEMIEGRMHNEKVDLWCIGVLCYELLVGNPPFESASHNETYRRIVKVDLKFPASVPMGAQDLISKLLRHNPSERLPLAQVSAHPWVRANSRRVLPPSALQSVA

Compound | Ki [1] | Ki [2] | Ki [3] | Ki [4] | Ki [5] | Ki [6] | Ki [7] | Ki [8] | Ki [9] | Ki [10] | Ki [11] | Ki [12] | Ki [13] | Ki [14] | Ki [15] | Ki [16] | Ki [17] | Ki [18] | Ki [19] | Ki [20] | further results
Cc1n[nH]c2ccc(-c3cncc(OCC(N)Cc4ccc(Cl)c(Cl)c4)c3)cc12 (stereo unspecified) | > 794 nM (inactive) | 7940 nM (active) | 794 nM (active) | 200 nM (active) | 126 nM (active) | 6.31 nM (active) | 2510 nM (active) | > 2510 nM (inactive) | 1260 nM (active) | > 5010 nM (inactive) | > 2000 nM (inactive) | > 2000 nM (inactive) | 31.6 nM (active) | > 631 nM (inactive) | 31.6 nM (active) | 63.1 nM (active) | 15.8 nM (active) | 79.4 nM (active) | 3160 nM (active) | > 1580 nM (inactive) | Ki [21]: > 2510 nM (inactive); Ki [22]: 12.6 nM (active); Ki [23]: 631 nM (active); Ki (Aurora kinase B): 251 nM (active); Ki [24]: > 7940 nM (inactive); Ki [25]: > 10000 nM (inactive); Ki [26]: 20 nM (active); Ki [27]: > 398 nM (inactive)
[2H]C([2H])([2H])Oc1cccc(C(C)NC(=O)c2sc(-c3ccncc3)nc2C)c1 (stereo unspecified) | > 6310 nM (inactive) | > 3160 nM (inactive) | > 6310 nM (inactive) | > 1580 nM (inactive) | > 5010 nM (inactive) | > 6310 nM (inactive) | > 5010 nM (inactive) | > 3160 nM (inactive) | > 5010 nM (inactive) | > 3980 nM (inactive) | > 3160 nM (inactive) | > 2510 nM (inactive) | > 3160 nM (inactive) | > 2510 nM (inactive) | 2000 nM (active) | > 2510 nM (inactive) | > 3980 nM (inactive) | > 5010 nM (inactive) | > 3980 nM (inactive) | > 2510 nM (inactive) | Ki [21]: > 6310 nM (inactive); Ki [22]: > 3980 nM (inactive); Ki [23]: > 6310 nM (inactive); Ki (Aurora kinase B): > 3980 nM (inactive); Ki [24]: > 2510 nM (inactive); Ki [25]: > 3160 nM (inactive); Ki [26]: > 3980 nM (inactive); Ki [27]: > 3980 nM (inactive)
